Legend:
Aurora-A = test system: Aurora-A; design: method as in earlier work; conditions: literature values; ref [10],[22],[27],[40],[44]–[64] as listed per inhibitor in Table 1; read-out: Targets (IC50 Value): Aurora-A; cited from earlier work
phospho-Aurora-A/B/C = test: Western blot of Aurora kinase phosphorylation in leukemia cell lines; type: cell-based, human
Description: (§1) Following desired experimental conditions, cells were harvested and centrifuged at 1200 rpm at 4°C for 5 minutes. After removal of supernatant, cells were washed in cold PBS. Following an additional centrifugation step, supernatant was removed and the pellet was re-suspended in radioimmunoprecipitation assay (RIPA) buffer (50 mM Tris-HCl (pH 8), 150 mM NaCl, 1% NP-40, 0.5% sodium deoxycholate; 0.1% sodium dodecyl sulphate (SDS)) supplemented with 1% phosphatase inhibitor (Sigma-Aldrich), 1% protease inhibitor (Sigma-Aldrich) and 1% sodium orthovanadate (Alfa Aesar, Ward Hill, Massachusetts). Samples were transferred to Eppendorf tubes, left on ice for 10 minutes, vortexed and then centrifuged at 14 000 rpm for 10 minutes.
To begin, the protein content of the lysates was measured using the Bicinchoninic Acid (BCA) Protein Assay Kit (Pierce, Rockford, Illinois), which included a protein standard curve generated with bovine serum albumin. Appropriate volumes of samples and loading buffer (50 mM Tris-HCl (pH 6.8), 2% SDS, 10% glycerol, 1% β-mercaptoethanol, 12.5 mM EDTA, 0.02% bromophenol blue) were mixed, ensuring that equal amounts of protein were loaded (30 µg of protein per well). Samples were then resolved on SDS-PAGE using various percentages of acrylamide gels (8%–12%), depending on the proteins of interest. SDS-PAGE was run in SDS running buffer (25 mM Tris, 192 mM glycine, 0.1% SDS) and then transferred to nitrocellulose membranes in transfer buffer (48 mM Tris, 39 mM glycine, 20% (v/v) methanol) at 100 volts for 2 hours at 4°C. Immunoblots were then blocked in 5% skim milk in tris-buffered saline with 0.1% Tween-20 (TBS-T; 50 mM Tris-HCl, pH 7.5, 150 mM NaCl, 0.1% (v/v) Tween-20 (Sigma-Aldrich)) for 1 to 2 hours. Immunoblots were then incubated with selected primary antibodies diluted in TBS-T with 0.1% gelatin (Bio-Rad, Mississauga, Ontario) and 0.05% sodium azide (Sigma-Aldrich) overnight. Primary antibodies included: Aurora-A (Cell Signalling, Danvers, Massachusetts; 1∶1000), Aurora-B (Cell Signalling, 1∶1000), phospho-Aurora-A/B/C (Cell Signalling, 1∶1000), caspase 7 (Cell Signalling, 1∶1000), PARP (Cell Signalling, 1∶2000) and β-Actin (Sigma-Aldrich, 1∶10000). Following washes with TBT-T 4 times for 8 to 10 minutes, immunoblots were incubated with appropriate secondary antibodies conjugated to horseradish peroxidise (Sigma-Aldrich) diluted in TBS-T plus 5% skim milk at a ratio of 1∶5000 for 2 hours at room temperature. After an additional round of washes in TBS-T, immunoblots were exposed to combined enhanced chemiluminescence (ECL) reagents (Reagent 1: 100 mM Tris-HCl (pH 8.5), 5.4 mM hydrogen peroxide; Reagent 2: 100 mM Tris-HCl (pH 8.5), 2.5 mM luminol, 0.4 mM p-coumaric acid) for 1 minute and developed by exposure to X-ray film (Christie InnoMed, Montreal, Quebec).
Leukemia cells were plated in a 6 well plate (BD Biosciences) at a concentration of 1×10^6 cells per well in a volume of 500 µl of Opti-MEM supplemented with FBS and antibiotics. Next, Silencer Select Negative Control Number 1 siRNA (Invitrogen), Aurora kinase A siRNA (s196, Invitrogen) and Aurora kinase B siRNA (s17611, Invitrogen) were diluted in individual tubes (BD Biosciences) to a final concentration of 30 nM in 500 µl Opti-MEM without supplements. Following, HiPerfect Transfection Reagent (Qiagen, Toronto, Ontario) was added to the diluted siRNA at a ratio of 3∶100 and the samples were left at room temperature for 10 minutes to allow for the formation of transfection complexes. The transfection complexes were then added to the cells at a volume of 500 µl per well and the plates were placed in the incubator for 6 hours. After incubation, 1.4 ml of Opti-MEM plus supplements were added to each well, for a total volume 2.4 ml per well. The cells were returned to the incubator for an additional 48 or 72 hours and then processed for immunoblotting.

[1] = test system: cleavage of PARP and caspase 7; test: Western blot of apoptotic markers in leukemia cell lines; type: cell-based, human; conditions: 2, 4, 6, 12 and 24 hours, C1, SEM, KOPN8, TIB-202
Description: as §1
To begin, the protein content of the lysates was measured using the Bicinchoninic Acid (BCA) Protein Assay Kit (Pierce, Rockford, Illinois), which included a protein standard curve generated with bovine serum albumin. Appropriate volumes of samples and loading buffer (50 mM Tris-HCl (pH 6.8), 2% SDS, 10% glycerol, 1% β-mercaptoethanol, 12.5 mM EDTA, 0.02% bromophenol blue) were mixed, ensuring that equal amounts of protein were loaded (30 µg of protein per well). Samples were then resolved on SDS-PAGE using various percentages of acrylamide gels (8%–12%), depending on the proteins of interest. SDS-PAGE was run in SDS running buffer (25 mM Tris, 192 mM glycine, 0.1% SDS) and then transferred to nitrocellulose membranes in transfer buffer (48 mM Tris, 39 mM glycine, 20% (v/v) methanol) at 100 volts for 2 hours at 4°C. Immunoblots were then blocked in 5% skim milk in tris-buffered saline with 0.1% Tween-20 (TBS-T; 50 mM Tris-HCl, pH 7.5, 150 mM NaCl, 0.1% (v/v) Tween-20 (Sigma-Aldrich)) for 1 to 2 hours. Immunoblots were then incubated with selected primary antibodies diluted in TBS-T with 0.1% gelatin (Bio-Rad, Mississauga, Ontario) and 0.05% sodium azide (Sigma-Aldrich) overnight. […]

SEM B-ALL cell line = test: Cytotoxicity assay, SEM; type: cell-based; conditions: Homo sapiens, 96 h, four days in culture, Alamar blue assay or automated microscopy, ± SD, three experiments
Procedure, shortened: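 Cells (1×10^4/well) exposed to inhibitor, 1×10^−6 to 10 µM final, in triplicate for 4 days in Opti-MEM with 10% FBS at 37°C. Survival read by Alamar blue absorbance (570–620 nm) or bright-field direct cell counting, expressed as percent of vehicle (DMSO) control.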

In the case of `CCN1CCN(C(=O)Cc2ccc(Nc3ncc(F)c(Nc4ccc(C(=O)Nc5ccccc5Cl)cc4)n3)cc2)CC1` [Aurora A Inhibitor I], the IC50 (Aurora-A) is given as 3 nM, the “phosphorylation of Aurora kinases, inhibitor alone, TIB-202” value (phospho-Aurora-A/B/C; 1 µM for 12 h, TIB-202, Lanes 3 and 6 of Figure 8) is given as “promoted dephosphorylation of Aurora-A and increased phosphorylation of Aurora-B and Aurora-C” and the “phosphorylation of Aurora-A, time course, C1” value (phospho-Aurora-A/B/C; 1 µM, 2, 4, 6, 12 and 24 hours, C1) is given as “slight increase in phosphorylation of Aurora-A at 12 and 24 hours”. The “phosphorylation of Aurora-B and Aurora-C, time course” value (phospho-Aurora-A/B/C; 1 µM, 2, 4, 6, 12 and 24 hours, C1, SEM, KOPN8, TIB-202) was “gradual increase in phosphorylation of Aurora-B and Aurora-C compared to vehicle control starting at 2 hours for SEM and KOPN8, 4 hours for TIB-202 and 6 hours for C1”, the “phosphorylation of Aurora-A, time course, SEM, KOPN8, TIB-202” value (phospho-Aurora-A/B/C; 1 µM, 2, 4, 6, 12 and 24 hours, SEM, KOPN8, TIB-202) was “initial decrease, followed by a subsequent increase in phosphorylation of Aurora-A was apparent, starting at 6 hours for SEM and at 4 hours for KOPN8 and TIB-202” and the “phosphorylation of Aurora kinases, inhibitor after Aurora-B siRNA” value (phospho-Aurora-A/B/C; Aurora-B siRNA 60 hours, then 1 µM for 12 h, SEM and TIB-202, Lane 5) was “decrease in phosphorylation of all three isoforms compared to treatment with Aurora A Inhibitor I alone or Aurora-B siRNA alone”. For the same molecule, the “cleavage of caspase 7, time course” value ([1]; 1 µM) was “cleavage of caspase 7 beginning at 4 hours for TIB-202 and at 12 hours for the remaining cell lines”.

With `CCS(=O)(=O)Nc1ccc2c(c1)/C(=C(/Nc1ccc(CN3CCCCC3)cc1)c1ccccc1)C(=O)N2` [Hesperadin] the IC50 (SEM B-ALL cell line) was 1 ± 0.5 nM, the “phosphorylation of Aurora-B, inhibitor alone” value (phospho-Aurora-A/B/C; 0.1 µM for 12 hours, SEM and TIB-202, Lanes 3 and 6 of Figure 7) was “promoted dephosphorylation of Aurora-B” and the “phosphorylation of Aurora-A, time course” value (phospho-Aurora-A/B/C; 0.1 µM, 2, 4, 6, 12 and 24 hours, C1, SEM, KOPN8, TIB-202) was “remained phosphorylated in all of the cell lines throughout the duration of treatment, with a slight increase in activity at 12 and 24 hours”. For the same molecule, the “phosphorylation of Aurora-B and Aurora-C, time course, C1 and TIB-202” value (phospho-Aurora-A/B/C; 0.1 µM, 2, 4, 6, 12 and 24 hours, C1 and TIB-202) was “Dephosphorylation of Aurora-B and Aurora-C was initiated at 2 hours in C1 and TIB-202 and maintained for the duration of the treatment”, the “phosphorylation of Aurora-B, time course, SEM and KOPN8” value (phospho-Aurora-A/B/C; 0.1 µM, 2, 4, 6, 12 and 24 hours, SEM and KOPN8) was “dephosphorylation of Aurora-B was initiated at 2 hours in SEM and KOPN8 and maintained until 24 hours” and the “phosphorylation of Aurora-B and Aurora-C, inhibitor after Aurora-A siRNA” value (phospho-Aurora-A/B/C; Aurora-A siRNA 60 hours, then 0.1 µM for 12 hours, SEM and TIB-202, Lane 5) was “decrease in phosphorylation of Aurora-B and Aurora-C compared to silencing of Aurora-A alone”. The “cleavage of PARP, time course” value ([1]; 0.1 µM) was “cleavage of PARP in all four cell lines starting at 12 hours” and the “cleavage of caspase 7, time course” value ([1]; 0.1 µM) was “cleavage of caspase 7 beginning at 4 hours for C1 and at 12 hours for the remaining cell lines”.

Molecule `O=C(Nc1c[nH]nc1-c1nc2ccc(CN3CCOCC3)cc2[nH]1)NC1CC1` [AT9283] has an IC50 (SEM B-ALL cell line) of 40 ± 20 nM.
